Data as given in patent US9782385B2, “Artificial tears solution combination” (National Health Research Institutes, priority 2015, dated 2017).

Columns and labels:
[1] = test system: inflammatory cytokines (IL-1β, IL-6, IL-8, and TNF-α); test: Gene expression experiment for inflammatory cytokines (Q-PCR) in LPS-induced HCEC; format: cell-based, Human; details: LPS 500 ng/ml induced HCEC, 2 hours with test material; compared with the other groups
Method: In this experiment, firstly, cultivate the Human Corneal Epithelial Cells (HCEC) for 48 hours, then utilize Lipopolysaccharide (LPS) at concentration of 500 ng/ml to induce HCEC for 3 hours, to make it to produce inflammatory reaction. Afterwards, add in the compound of EGCG and HA to cultivate with HCEC for 2 hours. The Gene Expression Experiment to evaluate Inflammatory cytokines was conducted for 3 days, and the samples for this experiment were obtained by collecting these cells on the third day. Firstly, utilize Trizol reagent to extract Ribonucleic Acid (RNA) of these cells, and then utilize the High-Capacity cDNA Reverse Transcription Kits made by manufacturer ABi to perform Reverse Transcription […] (RT-PCR), to synthesis the complementary deoxyribonucleic acid (cDNA). Subsequently, utilize the TagManR Fast Universal Master Mix (2X) made by manufacturer ABi, to perform Quantitative Real-Time PCR (Q-PCR) on the inflammatory cytokines (IL-1β, IL-6, IL-8, and TNF-α), to detect the gene expression of the inflammation cytokines (IL-1β, IL-6, IL-8, and TNF-α).

[2] = test system: inflammation cytokines (IL-1β, IL-6, IL-8, and TNF-α); test: Inflammation cytokines protein expression experiment (ELISA of cornea protein); format: in vivo; details: rabbit, BAC-induced dry eye, treatment twice a day for 2 weeks
Source text: In this experiment, firstly, a Benzalkonium Chloride (BAC) is dipped onto the eyes of a rabbit 3 times a day for 3 weeks, to induce the rabbit eyes to produce inflammation, and to cause it to have symptoms of moderate dry eye syndrome. Then, utilize various combined compounds of artificial tear solution, HA, and EGCG to proceed with treatments, twice a day for 2 weeks. Then, extract the protein from the rabbit's cornea to perform Enzyme-Linked Immunosorbent Assay (ELISA), to detect the protein expression of the inflammation cytokines (IL-1β, IL-6, IL-8, and TNF-α), and to observe and determine whether the inflammation cytokines were reduced, through treatment of various compounds of artificial tear solution, HA, and EGCG

O=C(O[C@@H]1Cc2c(O)cc(O)cc2O[C@@H]1c1cc(O)c(O)c(O)c1)c1cc(O)c(O)c(O)c1 [EGCG, Epigallocatechin gallate]
Relative Transcription Ratios of the 4 inflammation factors (IL-1β, IL-6, IL-8, TNF-α) [1]: does have anti-inflammatory effect
concentration of inflammatory cytokines (IL-1β, IL-6, IL-8, and TNF-α) in cornea [2]: has the anti-inflammatory effect
